# According to PubChem BioAssay (NCI):
#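 Compound exposure: 48 hours, 5 concentrations, 96-well plates. At the GI50, growth is halved. TGI: total growth inhibition.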
# Key:
# Experiment in all cases: growth of human tumour cells (NCI), 48 h
# 786-0 renal = test system: 786-0 renal
# A498 renal = test system: A498 renal
# A549 NSCLC = test system: A549 NSCLC
# ACHN renal = test system: ACHN renal
# BT-549 breast = test system: BT-549 breast
# CAKI-1 renal = test system: CAKI-1 renal
# CCRF-CEM leukemia = test system: CCRF-CEM leukemia
# COLO 205 colon = test system: COLO 205 colon
# DU-145 prostate = test system: DU-145 prostate
# EKVX NSCLC = test system: EKVX NSCLC
# HCC-2998 colon = test system: HCC-2998 colon
# HCT-116 colon = test system: HCT-116 colon
# HCT-15 colon = test system: HCT-15 colon
# HL-60(TB) leukemia = test system: HL-60(TB) leukemia
# HOP-62 NSCLC = test system: HOP-62 NSCLC
# HOP-92 NSCLC = test system: HOP-92 NSCLC
# HS 578T breast = test system: HS 578T breast
# HT29 colon = test system: HT29 colon
# K-562 leukemia = test system: K-562 leukemia
# KM12 colon = test system: KM12 colon
# LOX IMVI melanoma = test system: LOX IMVI melanoma
# M14 melanoma = test system: M14 melanoma
# MALME-3M melanoma = test system: MALME-3M melanoma
# MCF7 breast = test system: MCF7 breast
# MDA-MB-435 = test system: MDA-MB-435
# MOLT-4 leukemia = test system: MOLT-4 leukemia
# NCI-H226 lung = test system: NCI-H226 lung
# NCI-H23 lung = test system: NCI-H23 lung
# NCI-H460 lung = test system: NCI-H460 lung
# NCI-H522 lung = test system: NCI-H522 lung
# NCI/ADR-RES ovarian = test system: NCI/ADR-RES ovarian
# OVCAR-3 ovarian = test system: OVCAR-3 ovarian
# OVCAR-4 ovarian = test system: OVCAR-4 ovarian
# OVCAR-5 ovarian = test system: OVCAR-5 ovarian
# OVCAR-8 ovarian = test system: OVCAR-8 ovarian
# PC-3 prostate = test system: PC-3 prostate
# RXF 393 renal = test system: RXF 393 renal
# SF-268 CNS = test system: SF-268 CNS
# SF-295 CNS = test system: SF-295 CNS
# SF-539 CNS = test system: SF-539 CNS
# SK-MEL-2 melanoma = test system: SK-MEL-2 melanoma
# SK-MEL-28 melanoma = test system: SK-MEL-28 melanoma
# SK-MEL-5 melanoma = test system: SK-MEL-5 melanoma
# SK-OV-3 ovarian = test system: SK-OV-3 ovarian
# SN12C renal = test system: SN12C renal
# SNB-19 CNS = test system: SNB-19 CNS
# SNB-75 CNS = test system: SNB-75 CNS
# SR leukemia = test system: SR leukemia
# SW-620 colon = test system: SW-620 colon
# T-47D breast = test system: T-47D breast
# TK-10 renal = test system: TK-10 renal
# U251 CNS = test system: U251 CNS
# UACC-257 melanoma = test system: UACC-257 melanoma
# UACC-62 melanoma = test system: UACC-62 melanoma
# UO-31 renal = test system: UO-31 renal
# IGROV1 ovarian = test system: IGROV1 ovarian
# MDA-MB-231 breast = test system: MDA-MB-231 breast
# RPMI-8226 leukemia = test system: RPMI-8226 leukemia
structure (smiles),measurement,setting,value
C=C(C[C@](O)(C(=O)/C=C/c1ccc(Cl)cc1)C(=O)OC)c1ccccc1,GI50,786-0 renal,1.66 µM
same,TGI,786-0 renal,3.24 µM
same,GI50,A498 renal,11.6 µM
same,TGI,A498 renal,23.8 µM
same,GI50,A549 NSCLC,6.63 µM
same,TGI,A549 NSCLC,21.8 µM
same,GI50,ACHN renal,2.17 µM
same,TGI,ACHN renal,5.2 µM
same,GI50,BT-549 breast,2.86 µM
same,TGI,BT-549 breast,10.7 µM
same,GI50,CAKI-1 renal,7 µM
same,TGI,CAKI-1 renal,20.7 µM
same,GI50,CCRF-CEM leukemia,2.86 µM
same,TGI,CCRF-CEM leukemia,13 µM
same,GI50,COLO 205 colon,2 µM
same,TGI,COLO 205 colon,4.36 µM
same,GI50,DU-145 prostate,3.03 µM
same,TGI,DU-145 prostate,10.7 µM
same,GI50,EKVX NSCLC,4.16 µM
same,TGI,EKVX NSCLC,16.9 µM
same,GI50,HCC-2998 colon,1.84 µM
same,TGI,HCC-2998 colon,3.42 µM
same,GI50,HCT-116 colon,1.92 µM
same,TGI,HCT-116 colon,3.96 µM
same,GI50,HCT-15 colon,1.45 µM
same,TGI,HCT-15 colon,3.52 µM
same,GI50,HL-60(TB) leukemia,2.72 µM
same,TGI,HL-60(TB) leukemia,7.83 µM
same,GI50,HOP-62 NSCLC,2.72 µM
same,TGI,HOP-62 NSCLC,9.03 µM
same,GI50,HOP-92 NSCLC,4.07 µM
same,TGI,HOP-92 NSCLC,15.5 µM
same,GI50,HS 578T breast,4.11 µM
same,TGI,HS 578T breast,34.6 µM
same,GI50,HT29 colon,1.9 µM
same,TGI,HT29 colon,4.65 µM
same,GI50,K-562 leukemia,2.12 µM
same,TGI,K-562 leukemia,8.8 µM
same,GI50,KM12 colon,1.81 µM
same,TGI,KM12 colon,4.24 µM
same,GI50,LOX IMVI melanoma,0.719 µM
same,TGI,LOX IMVI melanoma,2.24 µM
same,GI50,M14 melanoma,2.98 µM
same,TGI,M14 melanoma,11.3 µM
same,GI50,MALME-3M melanoma,12.4 µM
same,TGI,MALME-3M melanoma,26.5 µM
same,GI50,MCF7 breast,0.456 µM
same,TGI,MCF7 breast,4.38 µM
same,GI50,MDA-MB-435,1.95 µM
same,TGI,MDA-MB-435,4.84 µM
same,GI50,MOLT-4 leukemia,2.59 µM
same,TGI,MOLT-4 leukemia,8.35 µM
same,GI50,NCI-H226 lung,3.48 µM
same,TGI,NCI-H226 lung,16.3 µM
same,GI50,NCI-H23 lung,2.82 µM
same,TGI,NCI-H23 lung,11.9 µM
same,GI50,NCI-H460 lung,2.44 µM
same,TGI,NCI-H460 lung,6.31 µM
same,GI50,NCI-H522 lung,2.25 µM
same,TGI,NCI-H522 lung,6.95 µM
same,GI50,NCI/ADR-RES ovarian,3.11 µM
same,TGI,NCI/ADR-RES ovarian,17.1 µM
same,GI50,OVCAR-3 ovarian,1.56 µM
same,TGI,OVCAR-3 ovarian,3.08 µM
same,GI50,OVCAR-4 ovarian,3.07 µM
same,TGI,OVCAR-4 ovarian,15.6 µM
same,GI50,OVCAR-5 ovarian,3.48 µM
same,TGI,OVCAR-5 ovarian,13.1 µM
same,GI50,OVCAR-8 ovarian,3.43 µM
same,TGI,OVCAR-8 ovarian,12.8 µM
same,GI50,PC-3 prostate,2.7 µM
same,TGI,PC-3 prostate,9.04 µM
same,GI50,RXF 393 renal,1.66 µM
same,TGI,RXF 393 renal,3.31 µM
same,GI50,SF-268 CNS,2.55 µM
same,TGI,SF-268 CNS,8.13 µM
same,GI50,SF-295 CNS,7.96 µM
same,TGI,SF-295 CNS,20.7 µM
same,GI50,SF-539 CNS,2.12 µM
same,TGI,SF-539 CNS,4.93 µM
same,GI50,SK-MEL-2 melanoma,13.3 µM
same,TGI,SK-MEL-2 melanoma,27.1 µM
same,GI50,SK-MEL-28 melanoma,2.04 µM
same,TGI,SK-MEL-28 melanoma,4.98 µM
same,GI50,SK-MEL-5 melanoma,4.11 µM
same,TGI,SK-MEL-5 melanoma,14.6 µM
same,GI50,SK-OV-3 ovarian,11.1 µM
same,TGI,SK-OV-3 ovarian,23.1 µM
same,GI50,SN12C renal,2.41 µM
same,TGI,SN12C renal,6.1 µM
same,GI50,SNB-19 CNS,3.69 µM
same,TGI,SNB-19 CNS,12.8 µM
same,GI50,SNB-75 CNS,8.43 µM
same,TGI,SNB-75 CNS,21.8 µM
same,GI50,SR leukemia,1.59 µM
same,TGI,SR leukemia,7.7 µM
same,GI50,SW-620 colon,2.05 µM
same,TGI,SW-620 colon,5.04 µM
same,GI50,T-47D breast,1.29 µM
same,TGI,T-47D breast,3.65 µM
same,GI50,TK-10 renal,2.33 µM
same,TGI,TK-10 renal,6.21 µM
same,GI50,U251 CNS,1.85 µM
same,TGI,U251 CNS,3.74 µM
same,GI50,UACC-257 melanoma,13.1 µM
same,TGI,UACC-257 melanoma,25.8 µM
same,GI50,UACC-62 melanoma,2.03 µM
same,TGI,UACC-62 melanoma,4.58 µM
same,GI50,UO-31 renal,1.56 µM
same,TGI,UO-31 renal,3.2 µM
COc1ccc2c(c1)C(=O)c1c-2n(CCCn2ccnc2)c(=O)c2cc([N+](=O)[O-])ccc12,GI50,786-0 renal,< 0.01 µM
same,GI50,A498 renal,< 0.01 µM
same,TGI,A498 renal,0.184 µM
same,GI50,A549 NSCLC,< 0.01 µM
same,GI50,BT-549 breast,< 0.0134 µM
same,TGI,BT-549 breast,0.744 µM
same,GI50,CAKI-1 renal,< 0.01 µM
same,TGI,CAKI-1 renal,0.366 µM
same,GI50,COLO 205 colon,0.0548 µM
same,TGI,COLO 205 colon,> 42.8 µM
same,GI50,DU-145 prostate,< 0.01 µM
same,TGI,DU-145 prostate,< 0.0294 µM
same,GI50,EKVX NSCLC,0.0646 µM
same,TGI,EKVX NSCLC,> 50.9 µM
same,GI50,HCC-2998 colon,< 0.0194 µM
same,TGI,HCC-2998 colon,0.267 µM
same,GI50,HCT-15 colon,< 0.0329 µM
same,TGI,HCT-15 colon,> 100 µM
same,GI50,HL-60(TB) leukemia,< 0.01 µM
same,TGI,HL-60(TB) leukemia,16.1 µM
same,GI50,HOP-62 NSCLC,< 0.01 µM
same,TGI,HOP-62 NSCLC,0.0119 µM
same,GI50,HOP-92 NSCLC,< 0.0397 µM
same,GI50,HS 578T breast,2.1 µM
same,TGI,HS 578T breast,> 29 µM
same,GI50,HT29 colon,< 0.01 µM
same,TGI,HT29 colon,> 100 µM
same,GI50,IGROV1 ovarian,< 0.01 µM
same,TGI,IGROV1 ovarian,25.2 µM
same,GI50,K-562 leukemia,< 0.01 µM
same,TGI,K-562 leukemia,> 100 µM
same,GI50,KM12 colon,< 0.0229 µM
same,TGI,KM12 colon,8.69 µM
same,GI50,LOX IMVI melanoma,< 0.01 µM
same,TGI,LOX IMVI melanoma,0.0351 µM
same,GI50,M14 melanoma,< 0.01 µM
same,TGI,M14 melanoma,< 0.01 µM
same,GI50,MALME-3M melanoma,< 0.0197 µM
same,TGI,MALME-3M melanoma,10.8 µM
same,GI50,MCF7 breast,< 0.01 µM
same,TGI,MCF7 breast,> 100 µM
same,GI50,MDA-MB-231 breast,2.59 µM
same,TGI,MDA-MB-231 breast,> 100 µM
same,GI50,MOLT-4 leukemia,< 0.01 µM
same,GI50,NCI-H226 lung,< 0.01 µM
same,TGI,NCI-H226 lung,0.584 µM
same,GI50,NCI-H23 lung,< 0.01 µM
same,TGI,NCI-H23 lung,< 0.01 µM
same,GI50,NCI-H460 lung,< 0.01 µM
same,TGI,NCI-H460 lung,0.241 µM
same,GI50,NCI-H522 lung,< 0.0134 µM
same,TGI,NCI-H522 lung,3.99 µM
same,GI50,NCI/ADR-RES ovarian,< 0.01 µM
same,TGI,NCI/ADR-RES ovarian,0.192 µM
same,GI50,OVCAR-3 ovarian,0.0254 µM
same,TGI,OVCAR-3 ovarian,4.41 µM
same,TGI,OVCAR-4 ovarian,> 100 µM
same,GI50,OVCAR-5 ovarian,< 0.0156 µM
same,GI50,OVCAR-8 ovarian,< 0.01 µM
same,TGI,OVCAR-8 ovarian,> 45.7 µM
same,GI50,PC-3 prostate,0.0168 µM
same,TGI,PC-3 prostate,> 100 µM
same,GI50,RPMI-8226 leukemia,0.0653 µM
same,TGI,RPMI-8226 leukemia,0.515 µM
same,GI50,RXF 393 renal,< 0.0107 µM
same,GI50,SF-268 CNS,< 0.01 µM
same,TGI,SF-268 CNS,> 75.5 µM
same,GI50,SF-295 CNS,< 0.01 µM
same,GI50,SF-539 CNS,< 0.01 µM
same,TGI,SF-539 CNS,0.0101 µM
same,GI50,SK-MEL-2 melanoma,0.245 µM
same,TGI,SK-MEL-28 melanoma,> 100 µM
same,GI50,SK-MEL-5 melanoma,< 0.01 µM
same,TGI,SK-MEL-5 melanoma,< 0.01 µM
same,GI50,SK-OV-3 ovarian,< 0.01 µM
same,TGI,SK-OV-3 ovarian,1.88 µM
same,GI50,SN12C renal,< 0.01 µM
same,TGI,SN12C renal,> 100 µM
same,GI50,SNB-19 CNS,< 0.01 µM
same,TGI,SNB-19 CNS,> 100 µM
same,GI50,SNB-75 CNS,< 0.0138 µM
same,TGI,SNB-75 CNS,0.41 µM
same,GI50,SR leukemia,< 0.01 µM
same,GI50,SW-620 colon,< 0.0111 µM
same,TGI,SW-620 colon,> 39.9 µM
same,GI50,T-47D breast,< 0.01 µM
same,GI50,TK-10 renal,0.14 µM
same,TGI,TK-10 renal,> 95.8 µM
same,GI50,U251 CNS,< 0.01 µM
same,TGI,U251 CNS,0.166 µM
same,GI50,UACC-257 melanoma,0.115 µM
same,GI50,UACC-62 melanoma,< 0.01 µM
same,TGI,UACC-62 melanoma,0.075 µM
same,GI50,UO-31 renal,< 0.01 µM
same,TGI,UO-31 renal,0.38 µM
